The numbers were not newly measured in US7713922B2, “Perfume compositions” (Quest International Services B.V., priority 2005, dated 2010), which cites them from elsewhere.

Where a name gives a salt, the structure may show the parent alone.

For this data set the following is noted: at 25° C.

`COC(Cc1ccccc1)OC`: the “VP Class (vapour pressure class)” value is reported as “III (vp at least 100 micron Hg at 25° C.)”. On to 2,4-DIMETHYL-6-PHENYLDIHYDROPYRAN, for which the “VP Class (vapour pressure class)” value was “I (vp greater than 3 micron Hg but less than 30 micron Hg at 25° C.)”. With `COCCc1ccccc1` [2-PHENYLETHYL METHYL ETHER], the “VP Class (vapour pressure class)” value is recorded as “III (vp at least 100 micron Hg at 25° C.)”. Consider `OCCCc1ccccc1` [3-PHENYLPROPYL ALCOHOL], for which the “VP Class (vapour pressure class)” value is “I (vp greater than 3 micron Hg but less than 30 micron Hg at 25° C.)”. With `CC(=O)c1ccccc1` [ACETOPHENONE], the “VP Class (vapour pressure class)” value is reported as “III (vp at least 100 micron Hg at 25° C.)”. As for `C=CCOC(=O)COc1ccccc1` [ALLYL PHENOXYACETATE], the “VP Class (vapour pressure class)” value was “I (vp greater than 3 micron Hg but less than 30 micron Hg at 25° C.)”.

For `CCCCCOC(=O)c1ccccc1O` [AMYL SALICYLATE], the “VP Class (vapour pressure class)” value is reported as “I (vp greater than 3 micron Hg but less than 30 micron Hg at 25° C.)”.

As to `CC=Cc1ccc(OC)cc1` [ANETHOLE], the “VP Class (vapour pressure class)” value is “II (vp greater than 30 micron Hg but less than 100 micron at 25° C.)”. On to `COc1ccc(C=O)cc1` [ANISIC ALDEHYDE], for which the “VP Class (vapour pressure class)” value was “II (vp greater than 30 micron Hg but less than 100 micron at 25° C.)”. For the compound `CC(C)CCOCCc1ccccc1` [ANTHER, 2-PHENYLETHYL ISOAMYL ETHER], the “VP Class (vapour pressure class)” value is given as “II (vp greater than 30 micron Hg but less than 100 micron at 25° C.)”. As for `CC(C=O)Cc1ccc2c(c1)OCO2` (stereo not shown) [AQUANAL], the “VP Class (vapour pressure class)” value is recorded as “I (vp greater than 3 micron Hg but less than 30 micron Hg at 25° C.)”. With `CC(=O)OCc1ccccc1` [BENZYL ACETATE], the “VP Class (vapour pressure class)” value is reported as “III (vp at least 100 micron Hg at 25° C.)”. Take `CC(=O)CCc1ccccc1` [BENZYL ACETONE]: the “VP Class (vapour pressure class)” value is on record as “II (vp greater than 30 micron Hg but less than 100 micron at 25° C.)”. `C/C=C(\C)C(=O)OCc1ccccc1` [BENZYL TIGLATE, PHENYLMETHYL (2E)-2-METHYLBUT-2-ENOATE]: the “VP Class (vapour pressure class)” value is recorded as “I (vp greater than 3 micron Hg but less than 30 micron Hg at 25° C.)”. Regarding `CC(C)(C)c1ccc(CCC=O)cc1` [BOURGEONAL, 3-(4-TERT.BUTYLPHENYL)PROPANAL], the “VP Class (vapour pressure class)” value is listed as “I (vp greater than 3 micron Hg but less than 30 micron Hg at 25° C.)”.

With `COc1ccc(CC(C)C=O)cc1` (stereo not shown) [CANTHOXAL, 2-METHYL-3-(4-METHOXYPHENYL)PROPANAL], the “VP Class (vapour pressure class)” value is recorded as “I (vp greater than 3 micron Hg but less than 30 micron Hg at 25° C.)”.

On to `OC/C=C/c1ccccc1` [CINNAMIC ALCOHOL], for which the “VP Class (vapour pressure class)” value was “I (vp greater than 3 micron Hg but less than 30 micron Hg at 25° C.)”. For the compound `CC(C=O)Cc1ccc(C(C)C)cc1` (stereo not shown) [CYCLAMEN ALDEHYDE, 2-METHYL-3-(4′-ISO-PROPYLPHENYL)PROPANAL], the “VP Class (vapour pressure class)” value is “I (vp greater than 3 micron Hg but less than 30 micron Hg at 25° C.)”. As to `c1ccc(Oc2ccccc2)cc1` [DIPHENYL OXIDE], the “VP Class (vapour pressure class)” value is on record as “I (vp greater than 3 micron Hg but less than 30 micron Hg at 25° C.)”. For `CCOC(C)OCCc1ccccc1` (stereo not shown) [EFETAAL, (2-{[1-(ETHYLOXY)ETHYL]OXY}ETHYL)BENZENE], the “VP Class (vapour pressure class)” value is “II (vp greater than 30 micron Hg but less than 100 micron at 25° C.)”. On to `CCOC(=O)c1ccccc1` [ETHYL BENZOATE], for which the “VP Class (vapour pressure class)” value is reported as “III (vp at least 100 micron Hg at 25° C.)”. For the compound `C=CCc1ccc(O)c(OC)c1` [EUGENOL], the “VP Class (vapour pressure class)” value is recorded as “I (vp greater than 3 micron Hg but less than 30 micron Hg at 25° C.)”. `CCc1ccc(CC(C)(C)C=O)cc1` [FLORALOZONE, 2,2-DIMETHYL-3-(PARA-ETHYL PHENYL)PROPANAL]: the “VP Class (vapour pressure class)” value is listed as “I (vp greater than 3 micron Hg but less than 30 micron Hg at 25° C.)”. On to `CC(C)c1cccc(C(C)CC=O)c1` (stereo not shown) [FLORHYDRAL], for which the “VP Class (vapour pressure class)” value is listed as “I (vp greater than 3 micron Hg but less than 30 micron Hg at 25° C.)”.

As to `CC(C)CCOC(=O)c1ccccc1O` [ISOAMYL SALICYLATE], the “VP Class (vapour pressure class)” value is given as “I (vp greater than 3 micron Hg but less than 30 micron Hg at 25° C.)”.

For `CC(C)COC(=O)c1ccccc1O` [ISOBUTYL SALICYLATE], the “VP Class (vapour pressure class)” value is on record as “I (vp greater than 3 micron Hg but less than 30 micron Hg at 25° C.)”.

Take `CC=Cc1ccc(O)c(OC)c1` [ISOEUGENOL]: the “VP Class (vapour pressure class)” value is given as “II (vp greater than 30 micron Hg but less than 100 micron at 25° C.)”. As for `CC(C)(C)c1ccc(CC#N)cc1` [MARENIL, 4-TERT-BUTYLPHENYLACETONITRILE], the “VP Class (vapour pressure class)” value is on record as “I (vp greater than 3 micron Hg but less than 30 micron Hg at 25° C.)”. For `CC(CC=O)CCc1ccccc1` (stereo not shown) [MEFRANAL, 3-METHYL-5-PHENYLPENTANAL], the “VP Class (vapour pressure class)” value is on record as “I (vp greater than 3 micron Hg but less than 30 micron Hg at 25° C.)”.

Take `CC(CCO)CCc1ccccc1` (stereo not shown) [MEFROSOL, 3-METHYL-5-PHENYLPENTANOL]: the “VP Class (vapour pressure class)” value is given as “I (vp greater than 3 micron Hg but less than 30 micron Hg at 25° C.)”. For the compound `COC(=O)c1ccccc1N` [METHYL ANTHRANILATE], the “VP Class (vapour pressure class)” value is on record as “I (vp greater than 3 micron Hg but less than 30 micron Hg at 25° C.)”. With `COC(=O)c1ccccc1` [METHYL BENZOATE], the “VP Class (vapour pressure class)” value is on record as “III (vp at least 100 micron Hg at 25° C.)”. `C=CCc1ccc(OC)cc1` [METHYL CHAVICOL, 4-METHOXY-1-(2-PROPENYL)-BENZENE]: the “VP Class (vapour pressure class)” value is recorded as “III (vp at least 100 micron Hg at 25° C.)”. With `COC(=O)C=Cc1ccccc1` [METHYL CINNAMATE], the “VP Class (vapour pressure class)” value was “I (vp greater than 3 micron Hg but less than 30 micron Hg at 25° C.)”. In the case of `C=CCc1ccc(OC)c(OC)c1` [METHYL EUGENOL], the “VP Class (vapour pressure class)” value is “I (vp greater than 3 micron Hg but less than 30 micron Hg at 25° C.)”. On to `COC(=O)Cc1ccccc1` [METHYL PHENYLACETATE], for which the “VP Class (vapour pressure class)” value is on record as “III (vp at least 100 micron Hg at 25° C.)”. For the compound `COC(=O)c1ccccc1O` [METHYL SALICYLATE], the “VP Class (vapour pressure class)” value is given as “III (vp at least 100 micron Hg at 25° C.)”. For the compound `CC(C)OCCc1ccccc1` [PETIOLE, 2-PHENYLETHYL ISOPROPYL ETHER], the “VP Class (vapour pressure class)” value was “III (vp at least 100 micron Hg at 25° C.)”. On to `CC(C)C(=O)OCCOc1ccccc1` [PHENOXYETHYL ISOBUTYRATE], for which the “VP Class (vapour pressure class)” value is listed as “I (vp greater than 3 micron Hg but less than 30 micron Hg at 25° C.)”.

For the compound `CC(=O)OCCc1ccccc1` [PHENYLETHYL ACETATE], the “VP Class (vapour pressure class)” value is on record as “II (vp greater than 30 micron Hg but less than 100 micron at 25° C.)”.

For `O=COCCc1ccccc1` [PHENYLETHYL FORMATE], the “VP Class (vapour pressure class)” value was “II (vp greater than 30 micron Hg but less than 100 micron at 25° C.)”. Consider `CC1CC(C)(c2ccccc2)CO1` (stereo not shown) [RHUBAFURAN], for which the “VP Class (vapour pressure class)” value is “II (vp greater than 30 micron Hg but less than 100 micron at 25° C.)”. As to `CC(=O)OC(C)c1ccccc1` (stereo not shown) [STYRALLYL ACETATE], the “VP Class (vapour pressure class)” value is on record as “III (vp at least 100 micron Hg at 25° C.)”.

For the compound `COc1ccc(C)cc1` [para-CRESYL METHYL ETHER], the “VP Class (vapour pressure class)” value is recorded as “III (vp at least 100 micron Hg at 25° C.)”. Turning to `COc1ccc(C(C)=O)cc1` [para-METHOXYACETOPHENONE], the “VP Class (vapour pressure class)” value is “II (vp greater than 30 micron Hg but less than 100 micron at 25° C.)”. Regarding `CC(=O)c1ccc(C)cc1` [para-METHYLACETOPHENONE], the “VP Class (vapour pressure class)” value is on record as “III (vp at least 100 micron Hg at 25° C.)”.
